Measured values taken from patent US20230126310A1 (priority 2020, published 2023).
Counter-ions that a name gives are not always drawn. Like-named read-outs stand apart in the source and are kept apart here.

Experiments:
[1] = system: SARS-CoV-2 (BetaCov/Belgium/GHB-03021/2020); assay: microbe, parasite or virus in culture; type: cell-based; conditions: for Emax / IC50: Severe acute respiratory syndrome coronavirus 2, 120 h; for Emax: read-out: Maximum confluence reached (%)
SARS-CoV-2 [2] = conditions: for % Inh. (% Inhibition of SARS-CoV-2): 10 µM
CaCo-2 cells = assay: Compound cytotoxicity against CaCo-2 cells at 48 hours; type: cell-based, Human; conditions: read-out: CC50: concentration of 50% cytotoxicity; Table 5, further results of Examples 1 and 2; mean ± spread
Experimental: (§1) The cytotoxicity of the profiled compounds towards CaCo-2 cells at 48 hours was assessed. […] After 48 hours, cytotoxicity was evaluated using both digital phase contrast readout as described above and ATP determination (Cell titre-glo, Promega Corp).

[3] = as above; type: cell-based, Human; conditions: human; comparative experiments, CaCo-2 cells, 48 hours
Experimental: as §1

SARS-CoV-2 [4] = assay: microbe, parasite or virus in culture; conditions: Severe acute respiratory syndrome coronavirus 2, Caco-2, 48 h; for inhibition at 10 µM: read-out: % Inh. (% Inhibition of SARS-CoV-2)
[5] = Table 5, further results of Examples 1 and 2
[6] = read-out: IC50: concentration of 50% inhibition of virus infection, Table 5, further results of Examples 1 and 2, […]

| SMILES | % Inh. (% Inhibition of SARS-CoV-2) (SARS-CoV-2 [2]) | pIC50: -log10 of IC50 (SARS-CoV-2 [2]; [5]) | IC50 (SARS-CoV-2 [2]; [6]) | CC50 (CaCo-2 cells) | Emax [1] | further results |
| --- | --- | --- | --- | --- | --- | --- |
| O=C(CCCN1CCC2(CC1)C(=O)N(Cc1cccc(F)c1)CN2c1ccccc1)c1ccc(F)cc1.O=C(O)/C=C\C(=O)O [3′-fluorobenzylspiperone] | – | – | – | – | – | Maximum confluence reached (%) [1]: 43.04% |
| FC(F)(F)Oc1ccc2nc(-c3ccc(OCCOCCOc4ccc(-c5nc6ccc(OC(F)(F)F)cc6[nH]5)nc4)cn3)[nH]c2c1 [AI-10-49] | 103.8% | 6.72 | 0.19 ± 0.06 µM | 6.58 ± 9.76 µM | – | pIC50 (SARS-CoV-2 [2]): 6.68 |
| CC(C)(C)c1ccc(/C=C/C(=O)Nc2ccc3c(c2)OCCO3)cc1 [AMG-9810] | 93.7% | – | – | 14.2 ± 17.9 µM | – | – |
| CCS(=O)(=O)N(Cc1cccnc1)c1cccc(-c2ccc(C#N)cc2)c1 [CBiPES] | 139.6% | 4.77 | 17.1 ± 1.17 µM | 13.4 ± 6.58 µM | – | – |
| Cl.Nc1nc(NCC2CCC(CNS(=O)(=O)c3cccc4ccccc34)CC2)nc2ccccc12 (stereo not shown) [CGP-71683] | 102.5% | – | – | – | – | Maximum confluence reached (%) [1]: 39.25% |
| C[C@@H]1C[C@@H]([C@H](O)CC2CC(=O)NC(=O)C2)C(=O)[C@@H](C)C1 [CYCLOHEXIMIDE] | – | – | – | – | 63.7% | – |
| CN(C)C(=O)COC(=O)Cc1ccc(OC(=O)c2ccc(NC(=N)N)cc2)cc1 [Camostat Mesilate (FOY-305), Camostat Mesilate] | – | – | – | – | – | % Inh (% inhibition of virus infection) (SARS-CoV-2 [2]; comparative experiments, Examples 1 and 2): 86.9%; CC50 at 48 h [3]: > 20 µM |
| CC(C)C(=O)OCC(=O)[C@@]12O[C@H](C3CCCCC3)O[C@@H]1C[C@H]1[C@@H]3CCC4=CC(=O)C=C[C@]4(C)[C@H]3[C@@H](O)C[C@@]12C [Ciclesonide] | – | – | – | – | 35.2% | inhibition at 10 µM (SARS-CoV-2 [4]): 85.4%; IC50 [1]: 47 µM |
| C=C(c1ccccc1OCc1cccc(Cl)c1)n1ccnc1 [Cloconazole HCl] | 92.8% | – | – | 33 µM | – | – |
| CCCCC1(C2CCCC2)Cc2cc(OCCCC(=O)O)c(Cl)c(Cl)c2C1=O (stereo not shown) [DCPIB] | 80.3% | – | – | 24.6 ± 11.7 µM | – | – |
| CC/C(=C(\c1ccc(O)cc1)c1ccc(OCCNC)cc1)c1ccccc1 [Endoxifen HCl] | – | – | – | – | 35.7% | IC50 [1]: 6.34 µM |
| Cn1cc(-c2ccc3c(c2)CCN3C(=O)Cc2cccc(C(F)(F)F)c2)c2c(N)ncnc21 [GSK2606414] | 109.9% | 6.60 | 0.25 ± 0.06 µM | 70.4 ± 15.3 µM | – | IC50 (SARS-CoV-2 [2]): 0.2 µM; pIC50 (SARS-CoV-2 [2]): 6.70 |
| O=C(O)Cc1cccc(OCCCN(Cc2cccc(C(F)(F)F)c2Cl)CC(c2ccccc2)c2ccccc2)c1 [GW-3965] | – | – | – | – | 38% | inhibition at 10 µM (SARS-CoV-2 [4]): 91.4% |
| CCCCN(CCCC)CCC(O)c1cc2c(Cl)cc(Cl)cc2c2cc(C(F)(F)F)ccc12 (stereo not shown) [Halofantrine] | – | – | – | – | 51.8% | inhibition at 10 µM (SARS-CoV-2 [4]): 91.4% |
| NC(=NC1C2CC3CC(C2)CC1C3)Nc1ccc(I)cc1 (stereo not shown) [IPAG] | 180.5% | 5.22 | 5.96 ± 0.57 µM | 11.5 ± 9.83 µM | – | Maximum confluence reached (%) [1]: 81.85% |
| CC(=O)[C@]1(O)Cc2c(O)c3c(c(O)c2[C@@H](O[C@H]2C[C@H](N)[C@H](O)[C@H](C)O2)C1)C(=O)c1ccccc1C3=O [Idarubicin HCl] | – | – | – | – | 92.6% | IC50 (SARS-CoV-2 [4]): 25 µM; inhibition at 10 µM (SARS-CoV-2 [4]): 86.6%; IC50 (SARS-CoV-2 [4]; read-out: pIC50 (converted)): 25.1 µM |
| Cc1nn(C)c2nc(NNC(=O)Nc3cc(Cl)nc(Cl)c3)cc(C(C)C)c12 [JTE-013] | 105.9% | 5.22 | 5.97 ± 0.15 µM | 16.4 ± 0.42 µM | – | IC50 (SARS-CoV-2 [2]): 3.66 µM; pIC50 (SARS-CoV-2 [2]): 5.44 |
| Cc1ccc(NC(=O)c2ccc(CN3CCN(C)CC3)cc2)cc1Nc1nc(-c2cccnc2)cs1 [Masitinib (AB1010), Masitinib] | – | – | – | – | 57.1% | inhibition at 10 µM (SARS-CoV-2 [4]): 108% |
| C/C(=N\NC(=S)N1CCC1)c1ccccn1 [NSC319726] | 104.2% | > 7.70 | < 0.02 µM | < 0.02 µM | – | pIC50 (SARS-CoV-2 [2]): 8.00 |
